Assay results as given in ChEMBL document CHEMBL5046253, “Synthesis and bioevaluation of diaryl urea derivatives as potential antitumor agents for the treatment of human colorectal cancer” (Eur J Med Chem, 2022).
Calls of active or inactive are those of the source. No cut-off for these calls is given here.

Assays:
[1] = biological target: Phosphatidylinositol 4,5-bisphosphate 3-kinase catalytic subunit alpha isoform (Homo sapiens, UniProt P42336); assay: Inhibition of PI3Kalpha (unknown origin) using PIP2 as substrate in presence of ATP incubated for 60 mins by ADP-glo based luminescence assay
Sequence of Phosphatidylinositol 4,5-bisphosphate 3-kinase catalytic subunit alpha isoform (P42336 whole entry, canonical isoform): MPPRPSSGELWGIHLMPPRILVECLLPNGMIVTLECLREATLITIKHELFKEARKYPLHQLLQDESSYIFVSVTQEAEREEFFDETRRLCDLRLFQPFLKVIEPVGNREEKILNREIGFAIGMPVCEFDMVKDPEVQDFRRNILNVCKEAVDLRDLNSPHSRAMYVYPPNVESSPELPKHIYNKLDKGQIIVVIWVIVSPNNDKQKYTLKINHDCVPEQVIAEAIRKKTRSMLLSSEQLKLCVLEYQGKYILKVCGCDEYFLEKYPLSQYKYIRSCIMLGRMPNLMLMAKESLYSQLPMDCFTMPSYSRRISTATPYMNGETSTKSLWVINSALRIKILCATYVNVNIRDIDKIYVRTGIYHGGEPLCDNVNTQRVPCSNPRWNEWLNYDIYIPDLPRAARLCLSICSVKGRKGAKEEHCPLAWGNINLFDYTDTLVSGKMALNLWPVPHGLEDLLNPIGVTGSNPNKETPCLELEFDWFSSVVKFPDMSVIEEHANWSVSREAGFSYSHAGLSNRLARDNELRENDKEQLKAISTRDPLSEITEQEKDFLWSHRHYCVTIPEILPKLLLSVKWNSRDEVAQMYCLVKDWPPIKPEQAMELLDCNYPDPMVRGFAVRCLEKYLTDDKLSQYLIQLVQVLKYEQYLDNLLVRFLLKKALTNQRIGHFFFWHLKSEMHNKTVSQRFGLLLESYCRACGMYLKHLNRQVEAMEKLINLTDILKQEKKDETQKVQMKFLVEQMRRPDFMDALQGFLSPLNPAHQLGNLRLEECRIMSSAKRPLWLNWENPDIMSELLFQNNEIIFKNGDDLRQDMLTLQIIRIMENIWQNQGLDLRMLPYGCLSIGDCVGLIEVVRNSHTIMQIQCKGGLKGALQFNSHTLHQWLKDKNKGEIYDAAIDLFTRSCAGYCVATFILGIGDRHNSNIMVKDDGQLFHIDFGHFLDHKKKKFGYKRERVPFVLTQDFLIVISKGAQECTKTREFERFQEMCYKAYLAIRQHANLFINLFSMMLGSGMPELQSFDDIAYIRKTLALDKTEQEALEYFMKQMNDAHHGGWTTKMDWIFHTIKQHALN

[2] = biological target: Serine/threonine-protein kinase mTOR (Homo sapiens, UniProt P42345); assay: Inhibition of mTOR (unknown origin) using U-Light-4E-BP1 peptide as a substrate in presence of ATP incubated for 45 mins by Lance ultra assay
[3] = biological target: Phosphatidylinositol 4,5-bisphosphate 3-kinase catalytic subunit beta isoform (Homo sapiens, UniProt P42338); assay: Inhibition of PI3Kbeta (unknown origin) using PIP2 as substrate in presence of ATP incubated for 60 mins by ADP-glo based luminescence assay
Sequence of Phosphatidylinositol 4,5-bisphosphate 3-kinase catalytic subunit beta isoform (P42338 whole entry, canonical isoform): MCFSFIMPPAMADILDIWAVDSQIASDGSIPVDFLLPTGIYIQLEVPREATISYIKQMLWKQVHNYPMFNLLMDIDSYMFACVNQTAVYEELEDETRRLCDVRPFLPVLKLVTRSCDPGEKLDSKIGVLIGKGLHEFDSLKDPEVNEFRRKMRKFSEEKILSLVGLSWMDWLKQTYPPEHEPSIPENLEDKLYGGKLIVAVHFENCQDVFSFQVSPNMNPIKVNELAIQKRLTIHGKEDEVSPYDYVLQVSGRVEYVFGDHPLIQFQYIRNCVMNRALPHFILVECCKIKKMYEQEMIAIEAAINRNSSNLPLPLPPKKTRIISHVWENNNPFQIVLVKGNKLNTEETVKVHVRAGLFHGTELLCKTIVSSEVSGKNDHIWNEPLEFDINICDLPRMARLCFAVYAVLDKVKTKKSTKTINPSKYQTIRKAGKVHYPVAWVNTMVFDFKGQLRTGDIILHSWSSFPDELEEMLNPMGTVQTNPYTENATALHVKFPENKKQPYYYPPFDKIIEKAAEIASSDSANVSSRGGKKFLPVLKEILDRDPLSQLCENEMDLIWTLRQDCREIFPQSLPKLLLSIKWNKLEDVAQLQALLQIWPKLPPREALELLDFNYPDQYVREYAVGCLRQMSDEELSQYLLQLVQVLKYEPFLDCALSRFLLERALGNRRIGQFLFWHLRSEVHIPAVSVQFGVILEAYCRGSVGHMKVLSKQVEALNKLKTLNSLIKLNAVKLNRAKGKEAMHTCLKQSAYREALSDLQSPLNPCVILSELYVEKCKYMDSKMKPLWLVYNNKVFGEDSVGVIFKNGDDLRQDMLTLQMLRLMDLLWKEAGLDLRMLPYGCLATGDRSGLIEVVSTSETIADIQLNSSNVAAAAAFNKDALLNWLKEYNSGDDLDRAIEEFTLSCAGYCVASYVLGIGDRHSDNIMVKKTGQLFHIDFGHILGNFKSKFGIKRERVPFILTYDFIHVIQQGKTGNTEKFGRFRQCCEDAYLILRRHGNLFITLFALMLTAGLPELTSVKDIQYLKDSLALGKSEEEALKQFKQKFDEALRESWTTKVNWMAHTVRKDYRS

HeLa = assay: Antiproliferative activity against human HeLa cells assessed as reduction in cell viability incubated for 48 hrs by MTT assay; format: functional, cell-based
CNE-2 = assay: Antiproliferative activity against human CNE-2 cells assessed as reduction in cell viability incubated for 48 hrs by MTT assay; format: functional, cell-based; conditions: CNE-2, 48 h
MCF7 = assay: Antiproliferative activity against human MCF7 cells assessed as reduction in cell viability incubated for 48 hrs by MTT assay; format: functional, cell-based; conditions: MCF7, 48 h
A-431 = assay: Antiproliferative activity against human A431 cells harboring wild type EGFR mutant assessed as reduction in cell viability incubated for 72 hrs by celltiter-glo assay; format: functional, cell-based; conditions: A-431, 72 h
NCI-H1975 = assay: Antiproliferative activity against human NCI-H1975 cells harboring EGFR L858R/T790M double mutant assessed as reduction in cell viability incubated for 72 hrs by celltiter-glo assay; format: functional, cell-based; conditions: NCI-H1975, 72 h
BaF3 = assay: Antiproliferative activity against mouse BaF3 cells harboring EGFR L858R/T790M/C797S mutant assessed as reduction in cell viability incubated for 72 hrs by celltiter-glo assay; format: toxicity, cell-based; conditions: BaF3, 72 h
HCT-116 [4] = assay: Inhibition of AKT phosphorylation at S473 residue in human HCT-116 cells at 10 uM after 24 hrs by Western blot analysis; format: cell-based
HCT-116 [5] = assay: Inhibition of cell migration in human HCT-116 cells at 1.5 uM measured after 24 hrs by wound healing assay (reference value: 31.16 %); format: functional
HCT-116 [6] = assay: Induction of apoptosis in human HCT-116 cells assessed as viable cells at 2.5 uM incubated for 24 hrs by annexin V FITC/propidium iodide staining based flow cytometry (reference value: 81.2 %); format: functional; conditions: read-out: Activity
HCT-116 [7] = assay: Induction of apoptosis in human HCT-116 cells assessed as early apoptotic cells at 2.5 uM incubated for 24 hrs by annexin V FITC/propidium iodide staining based flow cytometry (reference value: 11.1 %); format: functional
HCT-116 [8] = assay: Induction of apoptosis in human HCT-116 cells assessed as late apoptotic cells at 2.5 uM incubated for 24 hrs by annexin V FITC/propidium iodide staining based flow cytometry (reference value: 6.8 %); format: functional
HCT-116 [9] = assay: Induction of apoptosis in human HCT-116 cells assessed as necrotic cells at 2.5 uM incubated for 24 hrs by annexin V FITC/propidium iodide staining based flow cytometry (reference value: 0.9 %); format: functional
HCT-116 [10] = assay: Induction of apoptosis in human HCT-116 cells assessed as late apoptotic cells at 5 uM incubated for 24 hrs by annexin V FITC/propidium iodide staining based flow cytometry (reference value: 6.8 %); format: functional
HCT-116 [11] = assay: Induction of apoptosis in human HCT-116 cells assessed as necrotic cells at 5 uM incubated for 24 hrs by annexin V FITC/propidium iodide staining based flow cytometry (reference value: 0.9 %); format: functional
HCT-116 [12] = assay: Induction of apoptosis in human HCT-116 cells assessed as viable cells at 10 uM incubated for 24 hrs by annexin V FITC/propidium iodide staining based flow cytometry (reference value: 81.2 %); format: functional; conditions: read-out: Activity
HCT-116 [13] = assay: Induction of apoptosis in human HCT-116 cells assessed as early apoptotic cells at 10 uM incubated for 24 hrs by annexin V FITC/propidium iodide staining based flow cytometry (reference value: 11.1 %); format: functional
HCT-116 [14] = assay: Induction of apoptosis in human HCT-116 cells assessed as necrotic cells at 10 uM incubated for 24 hrs by annexin V FITC/propidium iodide staining based flow cytometry (reference value: 0.9 %); format: functional
[15] = Stability of the compound in simulated gastrointestinal fluid; format: ADME
[16] = Metabolic stability in Sprague-Dawley rat liver microsome; format: ADME; conditions: microsomes
[17] = Volume of distribution at steady state in Sprague-Dawley rat at 20 mg/kg, iv by LC-MS/MS analysis; format: ADME, organism-based; conditions: in vivo
Cytochrome P450 2C19 = Cytochrome P450 2C19 (Homo sapiens, UniProt P33261); assay: Inhibition of CYP2C19 (unknown origin); format: ADME
Sequence of Cytochrome P450 2C19 (P33261 whole entry): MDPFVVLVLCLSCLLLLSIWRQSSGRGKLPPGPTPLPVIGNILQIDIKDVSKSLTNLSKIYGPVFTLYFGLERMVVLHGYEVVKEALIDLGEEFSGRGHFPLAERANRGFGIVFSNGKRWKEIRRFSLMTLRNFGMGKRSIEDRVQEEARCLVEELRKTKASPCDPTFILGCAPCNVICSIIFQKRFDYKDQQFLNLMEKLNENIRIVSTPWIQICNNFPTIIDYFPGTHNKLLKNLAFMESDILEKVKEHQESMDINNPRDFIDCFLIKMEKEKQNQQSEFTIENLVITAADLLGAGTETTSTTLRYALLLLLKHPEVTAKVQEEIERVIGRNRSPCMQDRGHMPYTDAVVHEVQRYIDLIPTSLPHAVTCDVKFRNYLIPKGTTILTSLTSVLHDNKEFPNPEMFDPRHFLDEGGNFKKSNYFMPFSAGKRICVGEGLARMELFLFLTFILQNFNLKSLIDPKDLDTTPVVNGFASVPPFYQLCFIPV

[18] = biological target: Voltage-gated inwardly rectifying potassium channel KCNH2 (Homo sapiens, UniProt Q12809); assay: Inhibition of human ERG transfected in CHO cells by automated patch method; format: toxicity, cell-based
Sequence of Voltage-gated inwardly rectifying potassium channel KCNH2 (Q12809 whole entry): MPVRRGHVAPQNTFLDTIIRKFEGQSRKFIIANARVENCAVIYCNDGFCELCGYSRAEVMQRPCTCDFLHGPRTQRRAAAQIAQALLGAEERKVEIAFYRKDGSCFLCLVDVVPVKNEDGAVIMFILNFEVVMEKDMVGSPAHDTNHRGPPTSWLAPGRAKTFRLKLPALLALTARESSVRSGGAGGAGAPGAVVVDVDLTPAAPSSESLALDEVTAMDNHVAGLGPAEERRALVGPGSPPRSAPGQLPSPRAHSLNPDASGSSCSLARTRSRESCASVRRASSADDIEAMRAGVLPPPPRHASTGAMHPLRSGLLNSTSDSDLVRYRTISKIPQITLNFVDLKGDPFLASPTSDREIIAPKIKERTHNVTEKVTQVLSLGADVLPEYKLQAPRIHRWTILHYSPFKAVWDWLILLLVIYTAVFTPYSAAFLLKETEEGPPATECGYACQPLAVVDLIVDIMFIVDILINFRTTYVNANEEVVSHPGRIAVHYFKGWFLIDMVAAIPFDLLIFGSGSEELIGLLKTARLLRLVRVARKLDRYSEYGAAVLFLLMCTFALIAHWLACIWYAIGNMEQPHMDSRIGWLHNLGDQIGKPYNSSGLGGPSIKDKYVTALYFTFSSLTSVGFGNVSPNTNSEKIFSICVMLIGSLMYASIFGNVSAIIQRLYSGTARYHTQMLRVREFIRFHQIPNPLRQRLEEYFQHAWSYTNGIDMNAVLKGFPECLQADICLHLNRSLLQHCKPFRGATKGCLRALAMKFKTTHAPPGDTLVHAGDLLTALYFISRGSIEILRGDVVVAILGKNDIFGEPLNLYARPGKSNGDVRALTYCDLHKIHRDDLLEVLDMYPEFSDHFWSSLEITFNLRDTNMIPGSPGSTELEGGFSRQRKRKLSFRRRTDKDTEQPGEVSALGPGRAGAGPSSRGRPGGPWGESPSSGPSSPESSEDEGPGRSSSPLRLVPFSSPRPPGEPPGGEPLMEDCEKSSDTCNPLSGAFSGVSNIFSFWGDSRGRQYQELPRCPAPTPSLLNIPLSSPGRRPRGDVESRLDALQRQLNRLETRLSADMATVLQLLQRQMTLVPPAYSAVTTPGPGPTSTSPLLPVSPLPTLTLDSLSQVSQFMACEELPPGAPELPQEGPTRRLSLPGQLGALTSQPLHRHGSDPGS

HCT-116 [19] = assay: Antitumor activity against human HCT-116 cells xenografted in BALB/c nude mouse assessed as tumor growth inhibition at 20 mg/kg, iv administered for 19 days; format: functional; conditions: HCT-116, iv, 456 h, time 19 day, read-out: TGI
Heart = assay: Toxicity in BALB/c mouse assessed as effect on heart by H and E staining based histological analysis; format: tissue-based; conditions: in vivo
Liver = assay: Toxicity in BALB/c mouse assessed as effect on liver by H and E staining based histological analysis; format: tissue-based; conditions: in vivo

Question: Which results are given for `NC(=O)[C@@H]1CCCN1C(=O)c1ccc(NC(=O)Nc2ccc(-c3nc(N4CCOCC4)nc(N4CCOCC4)n3)cc2)cc1`?
Answer: IC50 [1]: 0.7 nM; IC50 [2]: 3.3 nM; IC50 [3]: 4.3 nM; IC50 (HeLa): 13400 nM; IC50 (CNE-2): 70 nM; IC50 (MCF7): 2220 nM; IC50 (A-431): 218 nM; IC50 (NCI-H1975): 217 nM; IC50 (BaF3): 217 nM; inhibition (HCT-116 [4]): Active; inhibition at 1.5 µM (HCT-116 [5]): 12.2%; viability at 2.5 µM (HCT-116 [6]): 58.7%; Activity (HCT-116 [7]): 18.5%; Activity (HCT-116 [8]): 20.6%; Activity (HCT-116 [9]): 2.2%; Activity (HCT-116 [10]): 9.71%; Activity (HCT-116 [11]): 1.79%; viability at 10 µM (HCT-116 [12]): 63.1%; Activity (HCT-116 [13]): 24.9%; Activity (HCT-116 [14]): 1.7%; Stability [15]: Stable; Stability [16]: Stable; Vdss [17]: 17.9 L/kg; IC50 (Cytochrome P450 2C19): > 50000 nM; IC50 [18]: > 30000 nM; inhibition in vivo at 20 mg/kg (HCT-116 [19]): 41.6%; Activity (Heart): Non-Toxic; Activity (Liver): Non-Toxic
